Usually inhibition stands for the change of the read-out against control, counted positive when it falls. The IC50 is the concentration at which inhibition is half-maximal.

What all share (test): In vitro competitive activity-based protein profiling (gel-based, FP-Rh or HT-01 probe)
Assay type in all cases: biochemical

For assay [1], the target named is T1, ABHD6 (Mus musculus, UniProt Q8R2Y0).
T1 construct: Proteomes (mouse brain membrane fraction or cell lysates); from tissue; host or cells: mouse brain membrane fraction (or cell lysates, not specified)
T1 sequence (Q8R2Y0 1-336): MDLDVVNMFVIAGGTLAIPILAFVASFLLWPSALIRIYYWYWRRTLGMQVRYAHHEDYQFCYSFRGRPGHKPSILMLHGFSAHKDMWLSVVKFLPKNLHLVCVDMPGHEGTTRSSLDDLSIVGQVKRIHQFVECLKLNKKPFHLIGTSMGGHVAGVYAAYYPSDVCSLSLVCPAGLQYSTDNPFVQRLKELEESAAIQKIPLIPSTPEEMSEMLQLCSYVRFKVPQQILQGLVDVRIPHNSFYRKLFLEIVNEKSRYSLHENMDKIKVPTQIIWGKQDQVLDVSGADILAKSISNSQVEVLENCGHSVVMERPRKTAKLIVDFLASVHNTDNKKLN
To be noted: for inhibition at 1 µM: 1 μM inhibitor, read-out: % Inhibition at 1 μM, C = ABHD6; for inhibition at 10 µM: 10 μM inhibitor, read-out: % Inhibition at 10 μM, C = ABHD6; for IC50: mouse brain membrane fraction or cell lysates, 30 min preincubation at 37° C., read-out: Mouse (IC50 value, nM) ABHD6. The method, boiled down:
(§1)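 Mouse brain membrane proteome or cell lysate (1.0 mg/mL protein) was preincubated with inhibitor at varying concentrations for 30 min at 37° C, then labelled with FP-Rh or HT-01 for 30 min at 37° C. After SDS-PAGE, residual hydrolase activity was quantified as in-gel fluorescence of each band.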

Assay [2] addresses T2, MAGL (Mus musculus, UniProt O35678).
T2 construct: Proteomes (mouse brain membrane fraction or cell lysates); from tissue; host or cells: mouse brain membrane fraction (or cell lysates, not specified)
T2 sequence (O35678 1-303): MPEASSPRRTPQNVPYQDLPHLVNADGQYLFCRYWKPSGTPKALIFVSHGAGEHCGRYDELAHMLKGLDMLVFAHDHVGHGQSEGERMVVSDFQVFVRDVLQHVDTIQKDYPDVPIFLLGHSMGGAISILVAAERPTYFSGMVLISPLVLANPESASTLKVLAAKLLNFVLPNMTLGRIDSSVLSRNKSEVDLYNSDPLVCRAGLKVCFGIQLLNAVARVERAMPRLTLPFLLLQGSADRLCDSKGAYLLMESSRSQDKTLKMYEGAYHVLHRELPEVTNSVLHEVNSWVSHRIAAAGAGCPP
Conditions: for inhibition at 1 µM: 1 μM inhibitor; for inhibition at 10 µM: 10 μM inhibitor; for IC50: mouse brain membrane fraction or cell lysates, 30 min preincubation at 37° C., read-out: Mouse (IC50 value, nM) MAGL. The method in brief:
as §1

The target in assay [3] is T3, PLA2G7 (Mus musculus, UniProt Q60963).
T3 construct: Proteomes (mouse brain membrane fraction or cell lysates); from tissue; host or cells: mouse brain membrane fraction (or cell lysates, not specified)
T3 sequence (Q60963 22-440): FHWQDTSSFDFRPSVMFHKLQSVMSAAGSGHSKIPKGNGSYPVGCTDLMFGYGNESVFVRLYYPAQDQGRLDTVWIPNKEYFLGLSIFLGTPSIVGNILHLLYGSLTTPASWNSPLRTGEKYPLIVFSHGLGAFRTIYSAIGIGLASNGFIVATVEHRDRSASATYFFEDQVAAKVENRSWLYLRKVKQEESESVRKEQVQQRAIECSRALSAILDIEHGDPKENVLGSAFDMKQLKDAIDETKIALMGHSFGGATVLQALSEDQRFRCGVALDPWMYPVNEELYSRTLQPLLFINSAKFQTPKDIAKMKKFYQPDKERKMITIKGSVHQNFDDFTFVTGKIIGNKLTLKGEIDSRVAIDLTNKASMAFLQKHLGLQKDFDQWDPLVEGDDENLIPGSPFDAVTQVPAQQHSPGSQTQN
Conditions: for inhibition at 1 µM: 1 μM inhibitor, read-out: % Inhibition at 1 μM, D = PLA2G7; for inhibition at 10 µM: 10 μM inhibitor, read-out: % Inhibition at 10 μM, D = PLA2G7; for IC50: mouse brain membrane fraction or cell lysates, 30 min preincubation at 37° C. The method, boiled down: as §1

Assay [4] concerns the target T4, FAAH (Mus musculus, UniProt O08914).
T4 construct: Proteomes (mouse brain membrane fraction or cell lysates); from tissue; host or cells: mouse brain membrane fraction (or cell lysates, not specified)
T4 sequence (O08914 1-579): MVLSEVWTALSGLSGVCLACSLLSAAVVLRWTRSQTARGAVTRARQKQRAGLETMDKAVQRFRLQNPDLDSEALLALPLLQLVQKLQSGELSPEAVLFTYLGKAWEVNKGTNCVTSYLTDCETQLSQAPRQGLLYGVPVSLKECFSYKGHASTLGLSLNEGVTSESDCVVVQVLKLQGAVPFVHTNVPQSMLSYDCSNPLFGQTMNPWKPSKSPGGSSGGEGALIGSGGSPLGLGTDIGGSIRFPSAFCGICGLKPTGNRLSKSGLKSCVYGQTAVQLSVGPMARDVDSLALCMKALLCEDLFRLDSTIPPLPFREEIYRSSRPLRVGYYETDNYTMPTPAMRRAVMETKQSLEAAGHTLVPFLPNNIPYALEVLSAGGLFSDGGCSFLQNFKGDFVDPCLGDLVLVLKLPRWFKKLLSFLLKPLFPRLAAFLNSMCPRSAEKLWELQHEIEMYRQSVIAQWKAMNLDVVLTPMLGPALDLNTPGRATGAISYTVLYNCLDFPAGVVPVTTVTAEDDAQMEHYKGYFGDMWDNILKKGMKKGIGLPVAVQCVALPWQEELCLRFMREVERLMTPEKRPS
To be noted: for inhibition at 1 µM: 1 μM inhibitor, read-out: % Inhibition at 1 μM, B = FAAH; for inhibition at 10 µM: 10 μM inhibitor, read-out: % Inhibition at 10 μM, B = FAAH; for IC50: mouse brain membrane fraction or cell lysates, 30 min preincubation at 37° C., read-out: Mouse (IC50 value, nM) FAAH. The method, boiled down: as §1

Read-outs that look alike come from different tables or passages of the source.

`O=C(N1CCN(Cc2ccc(-c3ccccc3)cc2Cl)CC1)n1cc(Cl)cn1` [Example 139, (4-chloro-1H-pyrazol-1-yl)(4-((3-chlorobiphenyl-4-yl)methyl)piperazin-1-yl)methanone]: the inhibition at 1 µM was more than 75% in assay [1], more than 75% in assay [2], less than 25% in assay [3] and more than 75% in assay [4]. Moreover, the inhibition at 10 µM in assay [1], in assay [2], in assay [3] and in assay [4] was more than 75% in each case. In addition, the half-inhibitory concentration (IC50) in assay [1] is 100 to 1000 nM; in assay [2], less than 100 nM; in assay [3], more than 1000 nM; in assay [4], less than 100 nM.

Regarding `O=C(N1CCN(Cc2ccc(Cl)cc2)CC1)n1cc(Cl)cn1` [Example 226, (4-Chloro-1H-pyrazol-1-yl)(4-(4-chlorobenzyl)piperazin-1-yl)methanone], the inhibition at 1 µM is more than 75% in assay [1], more than 75% in assay [2], less than 25% in assay [3] and more than 75% in assay [4]. Also, the concentration for half-maximal inhibition (IC50) in assay [1] is less than 100 nM; in assay [2], less than 100 nM; in assay [3], more than 1000 nM; in assay [4], less than 100 nM.

As to `O=C(c1cnn(C(=O)N2CCN(Cc3ccc4c(c3)OCO4)CC2)c1)N1CCCC1` [Example 78, (4-(Benzo[d][1,3]dioxol-5-ylmethyl)piperazin-1-yl)(4-(pyrrolidine-1-carbonyl)-1H-pyrazol-1-yl)methanone], the inhibition at 1 µM in assay [1] was more than 75%; in assay [2] it was less than 25%; in assay [3], less than 25%; in assay [4] it was more than 75%. Besides, the inhibition at 10 µM in assay [1], in assay [2], in assay [3] and in assay [4] was more than 75% throughout.

`O=C(N1CCN(CC2CC2)CC1)n1cc(Cl)cn1` [Example 215, (4-Chloro-1H-pyrazol-1-yl)(4-(cyclopropylmethyl)piperazin-1-yl)methanone]: the inhibition at 1 µM in assay [1] is more than 75%; in assay [2], 25 to 75%; in assay [3], less than 25%; in assay [4] it was more than 75%. Further, the inhibition at 10 µM in assay [1], in assay [2], in assay [3] and in assay [4] was more than 75% throughout.

Take `CCN(Cc1ccc(Cl)cc1)C(=O)n1cc(C(F)(F)F)cn1` [Example 253, N-(4-Chlorobenzyl)-N-ethyl-4-(trifluoromethyl)-1H-pyrazole-1-carboxamide]: the inhibition at 1 µM in assay [1] (gel-based competitive ABPP) is less than 25%; in assay [2] (gel-based competitive ABPP) it was 25 to 75%; in assay [3] (gel-based competitive ABPP) it was less than 25%; in assay [4] (gel-based competitive ABPP), more than 75%. For the same molecule, the IC50 in assay [1] was more than 1000 nM; in assay [2], more than 1000 nM; in assay [3], more than 1000 nM; in assay [4], less than 100 nM.

`Cc1cnn(C(=O)N2CCN(C)CC2)c1` [Example 163, (4-Methyl-1H-pyrazol-1-yl)(4-methylpiperazin-1-yl)methanone]: the inhibition at 1 µM in assay [1], in assay [2], in assay [3] and in assay [4] was less than 25% throughout. For the same molecule, the inhibition at 10 µM was 25 to 75% in assay [1], less than 25% in assay [2], less than 25% in assay [3] and less than 25% in assay [4].

In the case of `CC(=O)N1CCN(C(=O)n2cc(Cl)cn2)CC1` [Example 183, 1-(4-(4-Chloro-1H-pyrazole-1-carbonyl)piperazin-1-yl)ethanone], the inhibition at 1 µM in assay [1], in assay [2], in assay [3] and in assay [4] was less than 25% each time. For the same molecule, the inhibition at 10 µM in assay [1] is less than 25%; in assay [2], less than 25%; in assay [3] it was more than 75%; in assay [4], less than 25%.

In the case of `O=C(N1CCOCC1)n1cc(C(F)(F)F)cn1` [Example 201, Morpholino(4-(trifluoromethyl)-1H-pyrazol-1-yl)methanone], the inhibition at 1 µM in assay [1] was more than 75%; in assay [2], less than 25%; in assay [3], more than 75%; in assay [4], more than 75%. In addition, the inhibition at 10 µM was more than 75% in assay [1], 25 to 75% in assay [2], more than 75% in assay [3] and more than 75% in assay [4].

Turning to `O=C(N1CCN(Cc2cccc(Cl)c2)CC1)n1cc(Cl)cn1` [Example 225, (4-Chloro-1H-pyrazol-1-yl)(4-(3-chlorobenzyl)piperazin-1-yl)methanone], the inhibition at 1 µM in assay [1] is more than 75%; in assay [2], more than 75%; in assay [3], less than 25%; in assay [4], more than 75%. In addition, the IC50 in assay [1] is 100 to 1000 nM; in assay [2], less than 100 nM; in assay [3] it was more than 1000 nM; in assay [4], less than 100 nM.

On to `CNC(=O)c1cnn(C(=O)N2CCN(Cc3ccc(Cl)cc3)CC2)c1` [Example 223, 1-(4-(4-Chlorobenzyl)piperazine-1-carbonyl)-N-methyl-1H-pyrazole-4-carboxamide], for which the inhibition at 1 µM in assay [1], in assay [2], in assay [3] and in assay [4] was more than 75% throughout. Besides, the figures for the half-inhibitory concentration (IC50) in assay [1], in assay [2] and in assay [4] were less than 100 nM, 100 to 1000 nM and 100 to 1000 nM, respectively.

For `O=C(O)c1cnn(C(=O)N2CCN(Cc3ccc(Cl)cc3)CC2)c1` [Example 288, 1-(4-(4-Chlorobenzyl)piperazine-1-carbonyl)-1H-pyrazole-4-carboxylic acid], the inhibition at 1 µM was less than 25% in assay [1] (gel-based competitive ABPP), less than 25% in assay [2] (gel-based competitive ABPP), less than 25% in assay [3] (gel-based competitive ABPP) and 25 to 75% in assay [4] (gel-based competitive ABPP). Moreover, the inhibition at 10 µM in assay [1] (gel-based competitive ABPP) is less than 25%; in assay [2] (gel-based competitive ABPP), less than 25%; in assay [3] (gel-based competitive ABPP), less than 25%; in assay [4] (gel-based competitive ABPP), more than 75%.

Values taken from patent US10093630B2, “Pyrazole compounds and methods of making and using same” (ABIDE THERAPEUTICS, INC., priority 2014, dated 2018).
